This note sets out measurements from patent US5102667A, “Isoindolone derivatives, their preparation and the pharmaceutical compositions containing them” (Rhone-Poulenc Sante, priority 1989, dated 1992).

Molecules are shown by their SMILES. Read-outs that look alike come from different tables or passages of the source.

Assay [1] in a line: analgesic activity (technique of E. Siegmund et al.). Format: in vivo. An excerpt:
Exp. Biol. Med., 95, 729 (1957).

A further assay has as its system substance P. The assay can be described thus: inhibition of the increase in capillary permeability caused by substance P (technique of A. Saria et al.). Format: in vivo. As to conditions: Rattus norvegicus, iv, rats. An excerpt: The study of several isoindolone derivatives of general formula (I) using the technique of A. Saria et al., Arch.
Assay [2] relates to septide. The experiment in a line: antagonism of behavioural effects induced by septide administered intrathecally (technique of R. E. Rodriguez et al.). In kind it is in vivo. As to conditions: rats.
Assay [3] has as its system septide. The assay can be described thus: antagonism of hypotension induced by septide / substance P (technique of C. A. Maggi et al.). Format: in vivo. The following applies: 0.2 mg/kg i.v./min, for 5 min; rats; i.v. injection of 250 μg of septide. The protocol:
The injection of substance P into the animal causes hypotension. The products studied using the technique of C. A. Maggi et al., J. Auton. Pharmac., 7, 11-32 (1987) show an antagonist effect in rats towards this hypotension. In particular, the product of Example 60 administered in a dose of 0.2 mg/kg i.v./min, for 5 min, causes an approximately 50% antagonism of the hypotension induced by an i.v. injection of 250 μg of septide.

Assay [4] relates to substance P receptors of human cells: lymphoblasts of line IM 9. The assay can be described thus: binding of substance P-H^3 on washed homogenates of IM-9 cells. As to conditions: substance P-H^3 1 nM. The protocol:
Substance P plays a role in the modulation of immune processes (J. P. McGillis et al., Fed. Proc., 46 (1), 196-199 (1987)). Substance P binds to receptors of human cells in cultures: the lymphoblasts of line IM 9 [D. G. Payan et al., J. of Immunology, 133 (6), 3260-5 (1984)]. The products according to the invention displace substance P at these locations.
Binding substance P--H^3 (concentration 1 nM)
on washed homogenates of IM-9 cells after freezing

For the compound `O=C1CCC(c2ccccc2)(c2ccccc2)[C@@H]2CN(C(Cc3ccccc3)=NCc3ccccc3)C[C@H]12` (racemic) [Example 13, (3aRS,7aRS)-2-(α-benzyliminophenethyl)-7,7-diphenyl-4-perhydroisoindolone], the ED50 in assay [1] (po, read-out: ED50) came out at 19 mg/kg. Turning to `CN(C)c1ccccc1CC(=O)N1C[C@@H]2C(=O)CCC(c3ccccc3)(c3ccccc3)[C@@H]2C1` [Example 60, (3aR,7aR)-7,7-diphenyl-2-[2-(2-dimethylaminophenyl)acetyl]-4-perhydroisoindolone], the ED50 in assay [1] (po, read-out: ED50) was 38 mg/kg; with substance P, ~1 mg/kg. In the assay on septide [2], the “% inhibition of the behaviour at a dose of 10 mg/kg sc” value was determined as 80%. The “antagonism of the hypotension induced by septide” value in the assay with septide [3] is “approximately 50%”. As to `O=C1CCC(c2ccccc2)(c2ccccc2)[C@@H]2CN(C(Cc3ccccc3)=NCc3cccs3)C[C@H]12` (relative stereo) [Example 27], the ED50 in assay [1] (po, read-out: ED50) turned out to be 29 mg/kg. Take `COc1ccccc1CC(=O)N1C[C@@H]2C(=O)CCC(c3ccccc3)(c3ccccc3)[C@@H]2C1` [Example 49, (3aR,7aR)-(-)-7,7-diphenyl-2-[(2-methoxyphenyl)acetyl]-4-perhydroisoindolone]: the “Binding substance P-H^3 (concentration 1 nM) on washed homogenates of IM-9 cells after freezing” value in assay [4] is reported as 680.

In the case of `COc1ccccc1CC(=N)N1C[C@@H]2C(=O)CCC(c3ccccc3)(c3ccccc3)[C@@H]2C1` (racemic) [Example 48, (3aRS,7aRS)-2-[1-imino-2-(2-methoxyphenyl)ethyl]-7,7-diphenyl-4-perhydroisoindolone], the ED50 in assay [1] (p.o.) was determined as 4 mg/kg p.o. Take `COc1ccccc1[C@H](C)C(=O)N1C[C@@H]2C(=O)CCC(c3ccccc3)(c3ccccc3)[C@@H]2C1` [Example 76, (3aR,7aR)-7,7-diphenyl-2-[(S)-2-(2-methoxyphenyl)propionyl]-4-perhydroisoindolone]: the “Binding substance P-H^3 (concentration 1 nM) on washed homogenates of IM-9 cells after freezing” value in assay [4] is on record as 315. `N=C(Cc1ccccc1)N1C[C@@H]2C(=O)CCC(c3ccccc3)(c3ccccc3)[C@@H]2C1` (racemic) [Example 4, (3aRS,7aRS)-2-(α-iminophenethyl)-7,7-diphenyl-4-perhydroisoindolone]: the ED50 in assay [1] (po, read-out: ED50) was determined as 42 mg/kg. Consider `COc1ccccc1CC(=N)N1C[C@@H]2C(=O)CCC(c3ccccc3)(c3ccccc3)[C@@H]2C1` [Example 50, (3aR,7aR)-2-[1-imino-2-(2-methoxyphenyl)ethyl]-7,7-diphenyl-4-perhydroisoindolone], for which the ED50 in assay [1] (p.o.) is 0.3 mg/kg p.o; in the assay on substance P, ~0.05 mg/kg. The “% inhibition of the behaviour at a dose of 10 mg/kg sc” value in the assay on septide [2] stood at 50%.
